Columns and labels:
[1] = molecular target: T1, hRIPK1 (aa 1-375) fusion protein (Homo sapiens, UniProt Q13546); experiment: Receptor-Interacting Protein Kinase 1 inhibition, ADP Glo assay (conversion of ATP to ADP due to autophosphorylation); type: biochemical; conditions: ATP 50 μM, 30 min preincubation, 240 min incubation, room temperature, DMSO 1%
T1 construct: hRIPK1 (aa 1-375) fusion protein
T1 sequence (Q13546 1-375): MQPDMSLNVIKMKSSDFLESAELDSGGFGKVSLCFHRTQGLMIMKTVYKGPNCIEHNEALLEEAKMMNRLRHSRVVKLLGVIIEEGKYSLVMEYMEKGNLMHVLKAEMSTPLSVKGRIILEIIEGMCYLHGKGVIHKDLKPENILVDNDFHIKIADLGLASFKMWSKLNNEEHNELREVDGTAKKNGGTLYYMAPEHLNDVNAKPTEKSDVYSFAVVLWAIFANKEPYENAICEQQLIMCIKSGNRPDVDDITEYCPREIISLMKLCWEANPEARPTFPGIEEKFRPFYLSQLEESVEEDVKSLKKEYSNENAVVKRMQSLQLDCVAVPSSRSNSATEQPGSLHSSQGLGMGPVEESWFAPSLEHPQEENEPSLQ
Outline: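 The readout was ADP-Glo luminescence after a 240 min rt autophosphorylation reaction with 50 μM ATP, following 30 min preincubation of 3.6 μg/ml hRIPK1 (aa 1-375) fusion with compound at 33300-1.69 nM final in 1% DMSO. Values came from Levenberg-Marquardt nonlinear fits.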

U937 cells = experiment: Cellular assay in U937 cells to measure activity of RIPK1-inhibitors on cell death (necroptosis); type: cell-based; conditions: Homo sapiens, U-937, TNFα/zVAD.fmk induced cell death (necroptosis), overnight (18 to 24 hrs), 37° C., MTS readout

Question: `N#Cc1cncc([C@@H]2CCON2C(=O)[C@H]2CC[C@H](COc3ccc(F)c(C(N)=O)c3)CC2)c1` [Compound 74, trans-5-((4-((S)-3-(5-cyanopyridin-3-yl)isoxazolidine-2-carbonyl)cyclohexyl)methoxy)-2-fluorobenzamide] was tested. Which IC50 [1] did it give?
Answer: 24 nM

Question: What about the IC50 (U937 cells) of the same compound?
Answer: 82 nM

Question: What does the source list for `N#Cc1cncc([C@@H]2CCON2C(=O)[C@H]2CC[C@H](COc3ccc(Cl)c(C(N)=O)c3)CC2)c1` [Compound 75, trans-2-chloro-5-((4-((S)-3-(5-cyanopyridin-3-yl)isoxazolidine-2-carbonyl)cyclohexyl)methoxy)benzamide]?
Answer: IC50 [1]: 43 nM; IC50 (U937 cells): 224 nM

Question: For `Cc1cc(C)n(-c2ccc(OC[C@H]3CC[C@H](C(=O)N4OCC[C@H]4c4cc(F)cc(C#N)c4)CC3)c(F)c2)n1` [Compound 76, trans-3-((S)-2-(4-((4-(3,5-dimethyl-1H-pyrazol-1-yl)-2-fluorophenoxy)methyl)cyclohexane-1-carbonyl)isoxazolidin-3-yl)-5-fluorobenzonitrile], which IC50 [1] is on record?
Answer: 47 nM

Question: And the IC50 (U937 cells)?
Answer: 47 nM

Question: How did the IC50 [1] turn out when `N#Cc1cc(F)cc([C@@H]2CCON2C(=O)[C@H]2CC[C@H](COc3cccc(S(N)(=O)=O)c3)CC2)c1` [Compound 77, trans-3-((4-((S)-3-(3-cyano-5-fluorophenyl)isoxazolidine-2-carbonyl)cyclohexyl)methoxy)benzenesulfonamide] was run?
Answer: 53 nM

Question: What about the IC50 (U937 cells) of the same compound?
Answer: 48 nM

Question: For `Cn1ccn(-c2ccc(OC[C@H]3CC[C@H](C(=O)N4OCC[C@H]4c4cc(F)cc(C#N)c4)CC3)c(F)c2)c1=O` [Compound 78, trans-3-fluoro-5-((S)-2-(4-((2-fluoro-4-(3-methyl-2-oxo-2,3-dihydro-1H-imidazol-1-yl)phenoxy)methyl)cyclohexane-1-carbonyl)isoxazolidin-3-yl)benzonitrile], which IC50 [1] is on record?
Answer: 43 nM

Question: What about the IC50 (U937 cells) of the same compound?
Answer: 9 nM

Question: What does the source list for `CC1(C)OC(=O)N(c2ccc(F)c(OC[C@H]3CC[C@H](C(=O)N4OCC[C@H]4c4cc(F)cc(C#N)c4)CC3)c2)C1=O` [Compound 79, trans-3-((S)-2-(4-((5-(5,5-dimethyl-2,4-dioxooxazolidin-3-yl)-2-fluorophenoxy)methyl)cyclohexane-1-carbonyl)isoxazolidin-3-yl)-5-fluorobenzonitrile]?
Answer: IC50 [1]: 20 nM; IC50 (U937 cells): 9 nM

Question: What does the source list for `CN1CC(=O)N(c2ccc(Cl)c(OC[C@H]3CC[C@H](C(=O)N4OCC[C@H]4c4cc(F)cc(C#N)c4)CC3)c2)C1=O` [Compound 80, trans-3-((S)-2-(4-((2-chloro-5-(3-methyl-2,5-dioxoimidazolidin-1-yl)phenoxy)methyl)cyclohexane-1-carbonyl)isoxazolidin-3-yl)-5-fluorobenzonitrile]?
Answer: IC50 [1]: 164 nM; IC50 (U937 cells): 123 nM

Question: `CC1(C)OC(=O)N(c2ccc(F)c(O[C@H]3CC[C@@H](C(=O)N4OCC[C@H]4c4cc(F)cc(C#N)c4)CC3)c2)C1=O` [Compound 81, cis-3-((S)-2-(4-(5-(5,5-dimethyl-2,4-dioxooxazolidin-3-yl)-2-fluorophenoxy)cyclohexane-1-carbonyl)isoxazolidin-3-yl)-5-fluorobenzonitrile] was tested. Which IC50 [1] did it give?
Answer: 92 nM

Question: And the IC50 (U937 cells)?
Answer: 855 nM

Question: Which results are given for `N#Cc1cc(F)cc([C@@H]2CCON2C(=O)[C@H]2CC[C@@H](Oc3ccc(F)c(C#N)c3)CC2)c1` [Compound 82, cis-5-((4-((S)-3-(3-cyano-5-fluorophenyl)isoxazolidine-2-carbonyl)cyclohexyl)oxy)-2-fluorobenzonitrile]?
Answer: IC50 [1]: 44 nM; IC50 (U937 cells): 385 nM

Question: `N#Cc1cc(F)cc(OC[C@H]2CC[C@H](C(=O)N3OCC[C@H]3c3cncc(C#N)c3)CC2)c1` [Compound 83, trans-5-((S)-2-(4-((3-cyano-5-fluorophenoxy)methyl)cyclohexane-1-carbonyl)isoxazolidin-3-yl)nicotinonitrile] was tested. Which IC50 [1] did it give?
Answer: 34 nM

Question: What about the IC50 (U937 cells) of the same compound?
Answer: 23 nM

Question: How did the IC50 [1] turn out when `O=C([C@H]1C[C@H](n2cnc3cc(F)ccc32)C1)N1OCC[C@H]1c1cccc(F)c1` [Compound 84, trans-(3-(5-fluoro-1H-benzo[d]imidazol-1-yl)cyclobutyl)((S)-3-(3-fluorophenyl)isoxazolidin-2-yl)methanone] was run?
Answer: 257 nM

Question: And the IC50 (U937 cells)?
Answer: 428 nM

Question: For `Cc1ccc(OC[C@H]2CC[C@H](C(=O)N3OCC[C@H]3c3cc(F)cc(C#N)c3)CC2)cc1C(N)=O` [Compound 85, trans-5-((4-((S)-3-(3-cyano-5-fluorophenyl)isoxazolidine-2-carbonyl)cyclohexyl)methoxy)-2-methylbenzamide], which IC50 [1] is on record?
Answer: 28 nM

Question: What about the IC50 (U937 cells) of the same compound?
Answer: 27 nM

Question: What does the source list for `Cc1ccc(OC[C@H]2CC[C@H](C(=O)N3OCC[C@H]3c3cc(F)cc(F)c3)CC2)cc1C(N)=O` [Compound 86, trans-5-((4-((S)-3-(3,5-difluorophenyl)isoxazolidine-2-carbonyl)cyclohexyl)methoxy)-2-methylbenzamide]?
Answer: IC50 [1]: 22 nM; IC50 (U937 cells): 10 nM

Question: What does the source list for `O=C([C@H]1C[C@@H](n2cnc3ccc(F)cc32)C1)N1OCC[C@H]1c1cc(F)cc(F)c1` [Compound 87, cis-((S)-3-(3,5-difluorophenyl)isoxazolidin-2-yl)(3-(6-fluoro-1H-benzo[d]imidazol-1-yl)cyclobutyl)methanone]?
Answer: IC50 [1]: 89 nM; IC50 (U937 cells): 551 nM

Question: Which results are given for `CN1CC(=O)N(c2ccc(Cl)c(OC[C@H]3CC[C@H](C(=O)N4OCC[C@H]4c4cncc(C#N)c4)CC3)c2)C1=O` [Compound 88, trans-5-((S)-2-(4-((2-chloro-5-(3-methyl-2,5-dioxoimidazolidin-1-yl)phenoxy)methyl)cyclohexane-1-carbonyl)isoxazolidin-3-yl)nicotinonitrile]?
Answer: IC50 [1]: 47 nM; IC50 (U937 cells): 458 nM

Question: With `Cn1ccn(-c2ccc(OC[C@H]3CC[C@H](C(=O)N4OCC[C@H]4c4cncc(C#N)c4)CC3)c(F)c2)c1=O` [Compound 89, trans-5-((S)-2-(4-((2-fluoro-4-(3-methyl-2-oxo-2,3-dihydro-1H-imidazol-1-yl)phenoxy)methyl)cyclohexane-1-carbonyl)isoxazolidin-3-yl)nicotinonitrile] as the compound, how does the IC50 [1] read?
Answer: 18 nM

Question: What about the IC50 (U937 cells) of the same compound?
Answer: 13 nM

Question: How did the IC50 [1] turn out when `Cc1cc(C)n(-c2ccc(OC[C@H]3CC[C@H](C(=O)N4OCC[C@H]4c4cncc(C#N)c4)CC3)c(F)c2)n1` [Compound 90, trans-5-((S)-2-(4-((4-(3,5-dimethyl-1H-pyrazol-1-yl)-2-fluorophenoxy)methyl)cyclohexane-1-carbonyl)isoxazolidin-3-yl)nicotinonitrile] was run?
Answer: 21 nM

Question: And the IC50 (U937 cells)?
Answer: 23 nM

Question: How did the IC50 [1] turn out when `N#Cc1cc(F)cc([C@@H]2CCON2C(=O)[C@H]2CC[C@H](COc3cc(C#N)ccn3)CC2)c1` [Compound 91, trans-2-[[4-[(3S)-3-(3-cyano-5-fluoro-phenyl)isoxazolidine-2-carbonyl]cyclohexyl]methoxy]pyridine-4-carbonitrile] was run?
Answer: 14 nM

Question: What about the IC50 (U937 cells) of the same compound?
Answer: 39 nM

Question: Which results are given for `CC1(C)OC(=O)N(c2ccc(F)c(OC[C@H]3CC[C@H](C(=O)N4OCC[C@H]4c4cncc(C#N)c4)CC3)c2)C1=O` [Compound 92, trans-5-((S)-2-(4-((5-(5,5-dimethyl-2,4-dioxooxazolidin-3-yl)-2-fluorophenoxy)methyl)cyclohexane-1-carbonyl)isoxazolidin-3-yl)nicotinonitrile]?
Answer: IC50 [1]: 42 nM; IC50 (U937 cells): 229 nM

Question: With `N#Cc1cc(F)cc([C@@H]2CCON2C(=O)[C@H]2CC[C@H](COc3ccnc(C#N)c3)CC2)c1` [Compound 93, trans-4-[[4-[(3S)-3-(3-cyano-5-fluoro-phenyl)isoxazolidine-2-carbonyl]cyclohexyl]methoxy]pyridine-2-carbonitrile] as the compound, how does the IC50 [1] read?
Answer: 18 nM

Question: What about the IC50 (U937 cells) of the same compound?
Answer: 13 nM

Question: How did the IC50 [1] turn out when `N#Cc1cncc([C@@H]2CCON2C(=O)[C@H]2CC[C@H](COc3cc(C#N)ccn3)CC2)c1` [Compound 94, trans-5-((S)-2-(4-(((4-cyanopyridin-2-yl)oxy)methyl)cyclohexane-1-carbonyl)isoxazolidin-3-yl)nicotinonitrile] was run?
Answer: 58 nM

Question: What about the IC50 (U937 cells) of the same compound?
Answer: 137 nM

Question: Which IC50 [1] does the source give for `N#Cc1ccc(OC[C@H]2CC[C@H](C(=O)N3OCC[C@H]3c3cncc(C#N)c3)CC2)nc1` [Compound 95, trans-5-((S)-2-(4-(((5-cyanopyridin-2-yl)oxy)methyl)cyclohexane-1-carbonyl)isoxazolidin-3-yl)nicotinonitrile] here?
Answer: 15 nM

Question: What about the IC50 (U937 cells) of the same compound?
Answer: 35 nM

Question: What does the source list for `O=C([C@H]1C[C@@H](n2ncc3cc(F)ccc32)C1)N1OCC[C@H]1c1cc(F)cc(F)c1` [Compound 96, cis-[(3S)-3-(3,5-difluorophenyl)isoxazolidin-2-yl]-[3-(5-fluoroindazol-1-yl)cyclobutyl]methanone]?
Answer: IC50 [1]: 47 nM; IC50 (U937 cells): 906 nM

Question: With `O=C([C@H]1C[C@H](n2ncc3cc(F)ccc32)C1)N1OCC[C@H]1c1cc(F)cc(F)c1` [Compound 97, trans-[(3S)-3-(3,5-difluorophenyl)isoxazolidin-2-yl]-[3-(5-fluoroindazol-1-yl)cyclobutyl]methanone] as the compound, how does the IC50 [1] read?
Answer: 38 nM

Question: And the IC50 (U937 cells)?
Answer: 151 nM

Question: Which IC50 [1] does the source give for `N#Cc1cc(F)cc([C@@H]2CCON2C(=O)[C@H]2C[C@H](n3ncc4cc(F)ccc43)C2)c1` [Compound 98, trans-3-fluoro-5-[(3S)-2-[3-(5-fluoroindazol-1-yl)cyclobutanecarbonyl]isoxazolidin-3-yl]benzonitrile] here?
Answer: 41 nM

Question: What about the IC50 (U937 cells) of the same compound?
Answer: 359 nM

— patent US20260317312A1, “ISOXAZOLIDINES AS RIPK1 INHIBITORS AND USE THEREOF” (GENZYME CORPORATION, priority 2023, published 2026)
